Assays:
Canada horseweed = experiment: Test F preemergence test; format: in vivo, Conyza canadensis; conditions: scale 0 to 100
Summary of the method: (§1)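 Compounds in a non-phytotoxic solvent formulation with surfactant were applied before emergence after sowing, or, for sugarcane, also postemergence. Evaluation was visual, against controls, after 14 to 21 greenhouse days.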

Russian thistle = experiment: Test F preemergence test; format: in vivo, Salsola kali; conditions: scale 0 to 100
Source text: Seeds of plant species selected from bermudagrass (Cynodon dactylon), Surinam grass (Brachiaria decumbens), large crabgrass (Digitaria sanguinalis), green foxtail (Setaria viridis), goosegrass (Eleusine indica), johnsongrass (Sorghum halepense), kochia (Kochia scoparia), pitted morningglory (Ipomoea lacunosa), purple nutsedge (Cyperus rotundus), common ragweed (Ambrosia elation), mustard (Brassica nigra), guineagrass (Panicum maximum), […] (Paspalum dilatatum), barnyardgrass (Echinochloa crus-galli), southern sandbur (Cenchrus echinatus), common sowthistle (Sonchus oleraceous), prickly […] spinosa), Italian ryegrass (Lolium multiflorum), common purslane (Portulaca oleracea), broadleaf signalgrass (Brachiaria platyphylla), common groundsel (Senecio vulgaris), common chickweed (Stellaria media), Virginia dayflower (Commelina virginica), annual bluegrass (Poa annua), naked crabgrass (Digitaria nuda), […] cochinchinensis), quackgrass (Elytrigia repens), Canada horseweed (Conyza canadensis), field bindweed (Convolvulus arvensis), […] (Bidens bipinnata), common mallow (Malva sylvestris), Russian thistle (Salsola kali), and sugarcane (Saccharum officinarum) were planted and treated preemergence with test chemicals formulated in a non-phytotoxic solvent mixture which included a surfactant. At a different time, sugarcane was treated with postemergence applications of some of the test chemicals formulated in the same manner. Plants were approximately 3- to 4-leaf stage for the postemergence treatments. Treated plants and controls were maintained in a greenhouse for 14 to 21 days, after which time all species were compared to controls and visually evaluated. […] A dash (-) response means no test result.

common chickweed = experiment: Test F preemergence test; format: in vivo, Stellaria media; conditions: scale 0 to 100
Summary of the method: as §1

common sowthistle = experiment: Test F preemergence test; format: in vivo, Sonchus oleraceous; conditions: scale 0 to 100
Summary of the method: as §1

green foxtail = experiment: Test D preemergence test; format: in vivo, Setaria viridis; conditions: scale 0 to 100
Source text: (§2) Seeds of plant species selected from annual bluegrass (Poa annua), blackgrass (Alopecurus myosuroides), downy bromegrass (Bromus tectorum), field violet (Viola arvensis), green foxtail (Setaria viridis), Italian ryegrass (Lolium multiflorum), littleseed canarygrass (Phalaris minor), spring wheat (Triticum aestivum), wild oat (Avena fatua), […]), winter barley (Hordeum vulgare), and winter wheat (Triticum aestivum) were planted and treated preemergence with test chemicals formulated in a non-phytotoxic solvent mixture which included a surfactant. […] A dash (-) response means no test result.

downy bromegrass = experiment: Test D preemergence test; format: in vivo, Bromus tectorum; conditions: scale 0 to 100
Source text: as §2

field sandbur = experiment: Test G preemergence test; format: in vivo, Cenchrus incertus; conditions: scale 0 to 100
millet = experiment: Test G preemergence test; format: in vivo, Panicum miliaceum; conditions: scale 0 to 100
spanishneedles = experiment: Test F preemergence test; format: in vivo, Bidens bipinnata; conditions: scale 0 to 100; for Spanishneedles plant response rating: 125 g ai/ha
Summary of the method: as §1

SMILES: Cc1cc[n+]([O-])c([S+]([O-])Cc2c(C(F)(F)F)nn(C)c2Cl)c1 (racemic) [Compound 20]
- Plant response rating, Horseweed (Canada horseweed; 8 g ai/ha, preemergence): 0
- Horseweed plant response rating (Canada horseweed; 62 g ai/ha, Preemergence): 0
- Plant response rating, Horseweed (Canada horseweed; Preemergence, 16 g ai/ha): 0
- Plant response rating, Horseweed (Canada horseweed; Preemergence, 31 g ai/ha): 0
- Plant response rating, Russian Thistle (Russian thistle; Preemergence, 16 g ai/ha): 0
- Plant response rating, Chickweed (common chickweed; 8 g ai/ha, preemergence): 0
- Chickweed plant response rating (common chickweed; 62 g ai/ha, Preemergence): 95
- Plant response rating, Chickweed (common chickweed; Preemergence, 16 g ai/ha): 80
- Plant response rating, Chickweed (common chickweed; Preemergence, 31 g ai/ha): 90
- Plant response rating, Sowthistle (common sowthistle; 8 g ai/ha, preemergence): 0
- Plant response rating, Sowthistle (common sowthistle; 16 g ai/ha, preemergence): 65
- Sowthistle plant response rating (common sowthistle; 62 g ai/ha, Preemergence): 50
- Plant response rating, Sowthistle (common sowthistle; Preemergence, 31 g ai/ha): 0

SMILES: Cn1nc(C(F)(F)F)c(C(Cl)S(=O)(=O)c2cccc[n+]2[O-])c1Cl (stereo not shown) [Compound 12]
- Plant response rating, Foxtail, Green (green foxtail; 31 g ai/ha): 55
- Plant response rating, Foxtail, Green (green foxtail; 62 g ai/ha): 60
- Plant response rating, Foxtail, Green (green foxtail; 125 g ai/ha): 65
- Plant response rating, Foxtail, Green (green foxtail; 250 g ai/ha): 100
- Plant response rating, Bromegrass, Downy (downy bromegrass; 31 g ai/ha): 0
- Plant response rating, Bromegrass, Downy (downy bromegrass; 62 g ai/ha): 0
- Plant response rating, Bromegrass, Downy (downy bromegrass; 125 g ai/ha): 60
- Plant response rating, Bromegrass, Downy (downy bromegrass; 250 g ai/ha): 60
- Plant response rating, Sandbur (field sandbur; 31 g ai/ha): 85
- Plant response rating, Sandbur (field sandbur; 62 g ai/ha): 85
- Plant response rating, Sandbur (field sandbur; 125 g ai/ha): 95
- Plant response rating, Sandbur (field sandbur; 250 g ai/ha): 100
- Plant response rating, Millet (millet; 31 g ai/ha): 50
- Plant response rating, Millet (millet; 62 g ai/ha): 50
- Plant response rating, Millet (millet; 125 g ai/ha): 100
- Plant response rating, Millet (millet; 250 g ai/ha): 100

SMILES: Cc1cc[n+]([O-])c(S(=O)(=O)C(Cl)c2c(C(F)(F)F)nn(C)c2OCC(F)(F)F)c1 (racemic) [Compound 37]
- Plant response rating, Russian Thistle (Russian thistle; 16 g ai/ha, preemergence): 0
- Plant response rating, Russian Thistle (Russian thistle; Preemergence, 31 g ai/ha): 0
- Plant response rating, Spanishneedles (spanishneedles; 16 g ai/ha, preemergence): 0
- Spanishneedles plant response rating (spanishneedles; preemergence): 0
- Plant response rating, Spanishneedles (spanishneedles; Preemergence, 62 g ai/ha): 0
- Plant response rating, Spanishneedles (spanishneedles; Preemergence, 31 g ai/ha): 0

SMILES: Cn1nc(C(F)(F)F)c(CS(=O)(=O)c2ccc(Cl)c[n+]2[O-])c1OC(F)F [Compound 7]
- Plant response rating, Foxtail, Green (green foxtail; 31 g ai/ha): 0
- Plant response rating, Foxtail, Green (green foxtail; 62 g ai/ha): 20
- Plant response rating, Foxtail, Green (green foxtail; 125 g ai/ha): 20
- Plant response rating, Foxtail, Green (green foxtail; 250 g ai/ha): 55
- Plant response rating, Bromegrass, Downy (downy bromegrass; 31 g ai/ha): 0
- Plant response rating, Bromegrass, Downy (downy bromegrass; 62 g ai/ha): 20
- Plant response rating, Bromegrass, Downy (downy bromegrass; 125 g ai/ha): 25
- Plant response rating, Bromegrass, Downy (downy bromegrass; 250 g ai/ha): 35
- Plant response rating, Sandbur (field sandbur; 31 g ai/ha): 0
- Plant response rating, Sandbur (field sandbur; 62 g ai/ha): 0
- Plant response rating, Sandbur (field sandbur; 125 g ai/ha): 0
- Plant response rating, Sandbur (field sandbur; 250 g ai/ha): 75
- Plant response rating, Millet (millet; 31 g ai/ha): 0
- Plant response rating, Millet (millet; 62 g ai/ha): 55
- Plant response rating, Millet (millet; 125 g ai/ha): 85
- Plant response rating, Millet (millet; 250 g ai/ha): 100

SMILES: CC(c1c(C(F)(F)F)nn(C)c1OCC(F)(F)F)S(=O)(=O)c1cccc[n+]1[O-] (racemic) [Compound 33]
- Plant response rating, Russian Thistle (Russian thistle; 16 g ai/ha, preemergence): 0
- Spanishneedles plant response rating (spanishneedles; preemergence): 65
- Plant response rating, Spanishneedles (spanishneedles; Preemergence, 62 g ai/ha): 35
- Plant response rating, Spanishneedles (spanishneedles; Preemergence, 31 g ai/ha): 35
